Results: ChEMBL document CHEMBL5257125, “Discovery of pyrido[4,3-d]pyrimidinone derivatives as novel Wee1 inhibitors” (Bioorg Med Chem, 2023)
One block for each molecule: values may come before it.

Columns and labels:
Wee1-like protein kinase [1] = target: T1, Wee1-like protein kinase (Homo sapiens, UniProt P30291); test: Inhibition of recombinant human Wee1 (214 to end residues) incubated for 1 hr in presence of tracer 178 by fluorescence based assay
Target sequence in this assay (P30291 whole entry): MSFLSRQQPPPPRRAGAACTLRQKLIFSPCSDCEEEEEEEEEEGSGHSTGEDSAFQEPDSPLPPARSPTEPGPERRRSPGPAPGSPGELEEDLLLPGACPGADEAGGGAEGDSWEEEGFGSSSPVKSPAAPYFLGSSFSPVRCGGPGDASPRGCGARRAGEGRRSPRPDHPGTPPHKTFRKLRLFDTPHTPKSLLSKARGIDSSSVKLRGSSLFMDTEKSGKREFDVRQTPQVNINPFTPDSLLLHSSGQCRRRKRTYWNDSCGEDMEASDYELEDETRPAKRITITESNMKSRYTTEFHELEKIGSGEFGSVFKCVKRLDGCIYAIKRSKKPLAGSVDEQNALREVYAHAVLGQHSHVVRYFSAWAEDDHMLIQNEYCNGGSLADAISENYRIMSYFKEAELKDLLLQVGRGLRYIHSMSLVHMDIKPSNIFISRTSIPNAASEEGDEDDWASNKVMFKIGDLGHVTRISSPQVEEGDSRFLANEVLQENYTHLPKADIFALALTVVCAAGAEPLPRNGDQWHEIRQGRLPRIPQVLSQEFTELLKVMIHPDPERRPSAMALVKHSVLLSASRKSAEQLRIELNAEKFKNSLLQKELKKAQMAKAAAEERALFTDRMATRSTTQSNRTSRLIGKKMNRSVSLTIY

MV4-11 [2] = test: Antiproliferative activity against human MV4-11 cells incubated for 72 hrs by Celltiter-glo assay; format: functional, cell-based; settings: MV4-11, 72 h
T47D = test: Antiproliferative activity against human T47D cells incubated for 72 hrs by Celltiter-glo assay; format: functional, cell-based
MV4-11 [3] = test: Induction of apoptosis in human MV4-11 cells assessed as early apoptotic cells at 400 nM after 48 hrs by Annexin V FITC/PI staining based flow cytometry analysis (reference value: 9.33%); format: functional
MV4-11 [4] = test: Induction of apoptosis in human MV4-11 cells assessed as necrotic cells at 400 nM after 48 hrs by Annexin V FITC/PI staining based flow cytometry analysis (reference value: 0.00968%); format: functional
MV4-11 [5] = test: Induction of apoptosis in human MV4-11 cells assessed as late apoptotic cells at 1600 nM after 48 hrs by Annexin V FITC/PI staining based flow cytometry analysis (reference value: 4.07%); format: functional
Wee1-like protein kinase [6] = target: T1, Wee1-like protein kinase; test: Inhibition of Wee1 in human MV4-11 cells assessed as reduction in phosphorylation of CDK1-Y15 incubated for 24 hrs by Western blot analysis; format: cell-based; settings: dose 0.01-5 µM
Target sequence in this assay (P30291 whole entry, looked up): as the sequence (P30291 whole entry) above

MV4-11 [7] = test: Induction of apoptosis in human MV4-11 cells assessed as early apoptotic cells at 200 nM after 48 hrs by Annexin V FITC/PI staining based flow cytometry analysis (reference value: 9.33%); format: functional
MV4-11 [8] = test: Induction of apoptosis in human MV4-11 cells assessed as early apoptotic cells at 1600 nM after 48 hrs by Annexin V FITC/PI staining based flow cytometry analysis (reference value: 9.33%); format: functional
MV4-11 [9] = test: Induction of apoptosis in human MV4-11 cells assessed as viable cells at 3200 nM after 48 hrs by Annexin V FITC/PI staining based flow cytometry analysis (reference value: 86.6%); format: functional; settings: read-out: Activity
MV4-11 [10] = test: Induction of apoptosis in human MV4-11 cells assessed as necrotic cells at 3200 nM after 48 hrs by Annexin V FITC/PI staining based flow cytometry analysis (reference value: 0.00968%); format: functional
MV4-11 [11] = test: Induction of apoptosis in human MV4-11 cells assessed as viable cells at 800 nM after 48 hrs by Annexin V FITC/PI staining based flow cytometry analysis (reference value: 86.6%); format: functional; settings: read-out: Activity
[12] = Metabolic stability in mouse liver microsomes assessed as parent compound remaining preincubated with NADPH for 5 mins followed by compound addition and measured upto 90 mins by LC-MS/MS analysis; format: ADME, Microsome; settings: read-out: Stability
MV4-11 [13] = test: Induction of apoptosis in human MV4-11 cells assessed as necrotic cells at 800 nM after 48 hrs by Annexin V FITC/PI staining based flow cytometry analysis (reference value: 0.00968%); format: functional
MV4-11 [14] = test: Induction of apoptosis in human MV4-11 cells assessed as necrotic cells at 200 nM after 48 hrs by Annexin V FITC/PI staining based flow cytometry analysis (reference value: 0.00968%); format: functional
MV4-11 [15] = test: Induction of apoptosis in human MV4-11 cells assessed as early apoptotic cells at 3200 nM after 48 hrs by Annexin V FITC/PI staining based flow cytometry analysis (reference value: 9.33%); format: functional
MV4-11 [16] = test: Induction of apoptosis in human MV4-11 cells assessed as viable cells at 200 nM after 48 hrs by Annexin V FITC/PI staining based flow cytometry analysis (reference value: 86.6%); format: functional; settings: read-out: Activity
MV4-11 [17] = test: Induction of apoptosis in human MV4-11 cells assessed as viable cells at 1600 nM after 48 hrs by Annexin V FITC/PI staining based flow cytometry analysis (reference value: 86.6%); format: functional; settings: read-out: Activity
MV4-11 [18] = test: Induction of apoptosis in human MV4-11 cells assessed as early apoptotic cells at 800 nM after 48 hrs by Annexin V FITC/PI staining based flow cytometry analysis (reference value: 9.33%); format: functional
MV4-11 [19] = test: Induction of apoptosis in human MV4-11 cells assessed as necrotic cells at 1600 nM after 48 hrs by Annexin V FITC/PI staining based flow cytometry analysis (reference value: 0.00968%); format: functional
MV4-11 [20] = test: Induction of apoptosis in human MV4-11 cells assessed as late apoptotic cells at 3200 nM after 48 hrs by Annexin V FITC/PI staining based flow cytometry analysis (reference value: 4.07%); format: functional
MV4-11 [21] = test: Induction of apoptosis in human MV4-11 cells assessed as viable cells at 400 nM after 48 hrs by Annexin V FITC/PI staining based flow cytometry analysis (reference value: 86.6%); format: functional; settings: read-out: Activity
MV4-11 [22] = test: Induction of DNA damage in human MV4-11 cells assessed as increase in gamma-H2AX expression incubated for 24 hrs by Western blot analysis; format: functional, cell-based; settings: dose 0.05-0.2 µM
MV4-11 [23] = test: Induction of cell cycle arrest in human MV4-11 cells assessed as accumulation of cells at G0/G1 phase at 800 nM incubated for 24 hrs by flow cytometry analysis; format: functional
MV4-11 [24] = test: Induction of apoptosis in human MV4-11 cells assessed as late apoptotic cells at 800 nM after 48 hrs by Annexin V FITC/PI staining based flow cytometry analysis (reference value: 4.07%); format: functional
MV4-11 [25] = test: Induction of apoptosis in human MV4-11 cells assessed as late apoptotic cells at 200 nM after 48 hrs by Annexin V FITC/PI staining based flow cytometry analysis (reference value: 4.07%); format: functional
MV4-11 [26] = test: Induction of apoptosis in human MV4-11 cells assessed as late apoptotic cells at 400 nM after 48 hrs by Annexin V FITC/PI staining based flow cytometry analysis (reference value: 4.07%); format: functional

SMILES: NC1CCN(c2ccc(Nc3cc4ncn(-c5c(Cl)cccc5Cl)c(=O)c4cn3)cc2)CC1
- IC50 (MV4-11 [2]): 2690 nM
- IC50 (Wee1-like protein kinase [1]): 65 nM
- IC50 (T47D): 18800 nM

SMILES: CC(=O)N1CCN(c2ccc(Nc3cc4ncn(-c5c(Cl)cccc5Cl)c(=O)c4cn3)cc2)CC1
- IC50 (Wee1-like protein kinase [1]): 294 nM

SMILES: CC(C)N1CCN(c2ccc(Nc3cc4ncn(-c5c(Cl)cccc5Cl)c(=O)c4cn3)cc2)CC1
- IC50 (Wee1-like protein kinase [1]): 38 nM

SMILES: O=c1c2cnc(Nc3ccc(N[C@@H]4CN5CCC4CC5)cc3)cc2ncn1-c1c(Cl)cccc1Cl
- IC50 (Wee1-like protein kinase [1]): 201 nM

SMILES: N[C@H]1CCN(c2ccc(Nc3cc4ncn(-c5c(Cl)cccc5Cl)c(=O)c4cn3)cc2)C1
- IC50 (MV4-11 [2]): 1010 nM
- IC50 (Wee1-like protein kinase [1]): 40 nM
- IC50 (T47D): 5030 nM

SMILES: Cc1cccc(Cl)c1-n1cnc2cc(Nc3ccc(N4CCN(C)CC4)cc3)ncc2c1=O
- IC50 (Wee1-like protein kinase [1]): 78 nM

SMILES: C[C@@H]1CN(c2ccc(Nc3cc4ncn(-c5c(Cl)cccc5Cl)c(=O)c4cn3)cc2CNC2CC2)C[C@H](C)N1
- IC50 (Wee1-like protein kinase [1]): 107 nM

SMILES: O=c1c2cnc(Nc3ccc(C4CCNCC4)cc3)cc2ncn1-c1c(Cl)cccc1Cl
- IC50 (Wee1-like protein kinase [1]): 78 nM

SMILES: O=c1c2cnc(Nc3ccc(N4CCN(C5CC5)CC4)cc3)cc2ncn1-c1c(Cl)cccc1Cl
- IC50 (Wee1-like protein kinase [1]): 97 nM

Second part, led by results:

- IC50 (Wee1-like protein kinase [1]): 58 nM
SMILES: N[C@@H]1CCN(c2ccc(Nc3cc4ncn(-c5c(Cl)cccc5Cl)c(=O)c4cn3)cc2)C1

- IC50 (MV4-11 [2]): 1070 nM
- IC50 (Wee1-like protein kinase [1]): 18 nM
- IC50 (T47D): 6390 nM
SMILES: CN1CCN(c2ccc(Nc3cc4ncn(-c5c(Cl)cccc5Cl)c(=O)c4cn3)nc2)CC1

- IC50 (Wee1-like protein kinase [1]): 1480 nM
SMILES: CN1CCN(c2ccc(Nc3cc4ncn(-c5ccccc5F)c(=O)c4cn3)cc2)CC1

- IC50 (MV4-11 [2]): 1160 nM
- IC50 (Wee1-like protein kinase [1]): 23 nM
- IC50 (T47D): 2670 nM
SMILES: C[C@@H]1CN(c2ccc(Nc3cc4ncn(-c5c(Cl)cccc5Cl)c(=O)c4cn3)nc2)C[C@H](C)N1

- inhibition (Wee1-like protein kinase [6]): Dose-Dependent Effect
- IC50 (MV4-11 [2]): 763 nM
- IC50 (Wee1-like protein kinase [1]): 21 nM
- remaining at 1.5 h [12]: 60%
- IC50 (T47D): 4640 nM
SMILES: CC(=O)Nc1cc(Nc2cc3ncn(-c4c(Cl)cccc4Cl)c(=O)c3cn2)ccc1N1C[C@@H](C)N[C@@H](C)C1
- Activity (MV4-11 [3]): 10.4%
- Activity (MV4-11 [4]): 0.02%
- Activity (MV4-11 [5]): 5.11%
- Activity (MV4-11 [7]): 12%
- Activity (MV4-11 [8]): 12.4%
- viability at 3.2 µM (MV4-11 [9]): 66.7%
- Activity (MV4-11 [10]): 0.01%
- viability at 0.8 µM (MV4-11 [11]): 81.7%
- Activity (MV4-11 [13]): 0.029%
- Activity (MV4-11 [14]): 0.00954%
- Activity (MV4-11 [15]): 21.3%
- viability at 0.2 µM (MV4-11 [16]): 84.7%
- viability at 1.6 µM (MV4-11 [17]): 82.4%
- Activity (MV4-11 [18]): 12.2%
- Activity (MV4-11 [19]): 0.048%
- Activity (MV4-11 [20]): 12%
- viability at 0.4 µM (MV4-11 [21]): 84.5%
- Activity (MV4-11 [22]): Dose-Dependent Effect
- Activity (MV4-11 [23]): 63%
- Activity (MV4-11 [24]): 0.12%
- Activity (MV4-11 [25]): 3.34%
- Activity (MV4-11 [26]): 5.09%

- IC50 (MV4-11 [2]): 874 nM
- IC50 (Wee1-like protein kinase [1]): 79 nM
- remaining at 1.5 h [12]: 22%
- IC50 (T47D): 14000 nM
SMILES: CN(C)CCCNc1ccc(Nc2cc3ncn(-c4c(Cl)cccc4Cl)c(=O)c3cn2)cc1

- IC50 (MV4-11 [2]): 1760 nM
- IC50 (Wee1-like protein kinase [1]): 35 nM
- IC50 (T47D): 19200 nM
SMILES: CN1CCC(Nc2ccc(Nc3cc4ncn(-c5c(Cl)cccc5Cl)c(=O)c4cn3)cc2)CC1

- IC50 (Wee1-like protein kinase [1]): 96 nM
SMILES: O=c1c2cnc(Nc3ccc(N4CCC(O)CC4)cc3)cc2ncn1-c1c(Cl)cccc1Cl

- IC50 (Wee1-like protein kinase [1]): 85 nM
SMILES: CCN1CCN(c2ccc(Nc3cc4ncn(-c5c(Cl)cccc5Cl)c(=O)c4cn3)cc2)CC1

- IC50 (Wee1-like protein kinase [1]): 55 nM
SMILES: NCC1CCN(c2ccc(Nc3cc4ncn(-c5c(Cl)cccc5Cl)c(=O)c4cn3)cc2)CC1

- IC50 (Wee1-like protein kinase [1]): 192 nM
SMILES: C[C@@H]1CN(c2ccc(Nc3cc4ncn(-c5c(Cl)cccc5Cl)c(=O)c4cn3)cc2C(F)(F)F)C[C@H](C)N1
